Measurements from ChEMBL document CHEMBL4613226, “Drug Metabolism by the Mitochondrial Amidoxime Reducing Component (mARC): Rapid Assay and Identification of New Substrates” (J Med Chem, 2020).
Blank lines part the entries; values can stand above or below the compound they belong to.

Key:
Format in all cases: ADME
[1] = molecular target: T1, Mitochondrial amidoxime-reducing component 1 (Homo sapiens, UniProt Q5VT66); experiment: Substrate activity at human mARC1 expressed in Escherichia coli assessed as turnover rates at 3 mM pre-incubated for 3 mins followed by NADH addition and measured after 15 mins by UV-Visible spectroscopy based NADH assay; settings: 0.25 h, 3000 µM
T1 sequence (Q5VT66 whole entry): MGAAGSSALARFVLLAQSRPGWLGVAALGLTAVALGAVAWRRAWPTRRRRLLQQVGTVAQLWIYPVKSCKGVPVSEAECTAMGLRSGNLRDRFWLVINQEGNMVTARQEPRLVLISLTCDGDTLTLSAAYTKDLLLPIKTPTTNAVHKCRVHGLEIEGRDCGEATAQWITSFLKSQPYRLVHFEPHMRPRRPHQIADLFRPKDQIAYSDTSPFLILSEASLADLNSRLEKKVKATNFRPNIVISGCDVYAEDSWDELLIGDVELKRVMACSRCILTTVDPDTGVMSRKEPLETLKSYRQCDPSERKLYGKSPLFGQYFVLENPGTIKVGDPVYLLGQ

[2] = molecular target: T2, Mitochondrial amidoxime reducing component 2 (Homo sapiens, UniProt Q969Z3); experiment: Substrate activity at human mARC2 expressed in Escherichia coli assessed as turnover rates at 3 mM pre-incubated for 3 mins followed by NADH addition and measured after 15 mins by UV-Visible spectroscopy based NADH assay; settings: 0.25 h, 3000 µM
T2 sequence (Q969Z3 whole entry): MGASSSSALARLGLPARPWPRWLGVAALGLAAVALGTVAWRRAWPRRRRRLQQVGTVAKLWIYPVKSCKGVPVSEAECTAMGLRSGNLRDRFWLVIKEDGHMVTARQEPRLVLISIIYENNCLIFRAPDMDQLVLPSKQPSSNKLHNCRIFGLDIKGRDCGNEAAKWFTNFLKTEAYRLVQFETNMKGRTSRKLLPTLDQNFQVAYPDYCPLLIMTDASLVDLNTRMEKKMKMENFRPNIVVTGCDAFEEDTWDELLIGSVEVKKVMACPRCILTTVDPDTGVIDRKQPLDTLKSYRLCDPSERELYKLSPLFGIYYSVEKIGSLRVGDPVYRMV

[3] = molecular target: T1, Mitochondrial amidoxime-reducing component 1; experiment: Substrate activity at human mARC1 expressed in Escherichia coli assessed as turnover rates at 200 uM pre-incubated for 3 mins followed by NADH addition and measured after 15 mins by UV-Visible spectroscopy based NADH assay; settings: 0.25 h
[4] = molecular target: T2, Mitochondrial amidoxime reducing component 2; experiment: Substrate activity at human mARC2 expressed in Escherichia coli assessed as turnover rates at 200 uM pre-incubated for 3 mins followed by NADH addition and measured after 15 mins by UV-Visible spectroscopy based NADH assay; settings: 0.25 h
[5] = molecular target: T1, Mitochondrial amidoxime-reducing component 1; experiment: Substrate activity at human mARC1 expressed in Escherichia coli assessed as turnover rates at 200 uM pre-incubated for 3 mins followed by NADH addition and measured after 15 mins by LC-MS analysis based assay; settings: 0.25 h
[6] = molecular target: T2, Mitochondrial amidoxime reducing component 2; experiment: Substrate activity at human mARC2 expressed in Escherichia coli assessed as turnover rates at 200 uM pre-incubated for 3 mins followed by NADH addition and measured after 15 mins by LC-MS analysis based assay; settings: 0.25 h
[7] = molecular target: T1, Mitochondrial amidoxime-reducing component 1; experiment: Substrate activity at human mARC1 expressed in Escherichia coli assessed as turnover rates at 3 mM pre-incubated for 3 mins followed by NADH addition and measured after 15 mins by LC-MS analysis based assay; settings: 0.25 h, 3000 µM
[8] = molecular target: T2, Mitochondrial amidoxime reducing component 2; experiment: Substrate activity at human mARC2 expressed in Escherichia coli assessed as turnover rates at 3 mM pre-incubated for 3 mins followed by NADH addition and measured after 15 mins by LC-MS analysis based assay; settings: 0.25 h, 3000 µM
[9] = molecular target: T1, Mitochondrial amidoxime-reducing component 1; experiment: Substrate activity at human mARC1 expressed in Escherichia coli assessed as turnover rates at 1 mM pre-incubated for 3 mins followed by NADH addition and measured after 15 mins by UV-Visible spectroscopy based NADH assay; settings: 0.25 h, 1000 µM
[10] = molecular target: T2, Mitochondrial amidoxime reducing component 2; experiment: Substrate activity at human mARC2 expressed in Escherichia coli assessed as turnover rates at 1 mM pre-incubated for 3 mins followed by NADH addition and measured after 15 mins by UV-Visible spectroscopy based NADH assay; settings: 0.25 h, 1000 µM
[11] = molecular target: T1, Mitochondrial amidoxime-reducing component 1; experiment: Substrate activity at human mARC1 expressed in Escherichia coli assessed as turnover rates at 1 mM pre-incubated for 3 mins followed by NADH addition and measured after 15 mins by LC-MS analysis based assay; settings: 0.25 h, 1000 µM
[12] = molecular target: T2, Mitochondrial amidoxime reducing component 2; experiment: Substrate activity at human mARC2 expressed in Escherichia coli assessed as turnover rates at 1 mM pre-incubated for 3 mins followed by NADH addition and measured after 15 mins by LC-MS analysis based assay; settings: 0.25 h, 1000 µM
[13] = molecular target: T1, Mitochondrial amidoxime-reducing component 1; experiment: Substrate activity at human mARC1 expressed in Escherichia coli assessed as turnover rates at 500 uM pre-incubated for 3 mins followed by NADH addition and measured after 15 mins by UV-Visible spectroscopy based NADH assay; settings: 0.25 h
[14] = molecular target: T2, Mitochondrial amidoxime reducing component 2; experiment: Substrate activity at human mARC2 expressed in Escherichia coli assessed as turnover rates at 500 uM pre-incubated for 3 mins followed by NADH addition and measured after 15 mins by UV-Visible spectroscopy based NADH assay; settings: 0.25 h
[15] = molecular target: T1, Mitochondrial amidoxime-reducing component 1; experiment: Substrate activity at human mARC1 expressed in Escherichia coli assessed as turnover rates at 500 uM pre-incubated for 3 mins followed by NADH addition and measured after 15 mins by LC-MS analysis based assay; settings: 0.25 h
[16] = molecular target: T2, Mitochondrial amidoxime reducing component 2; experiment: Substrate activity at human mARC2 expressed in Escherichia coli assessed as turnover rates at 500 uM pre-incubated for 3 mins followed by NADH addition and measured after 15 mins by LC-MS analysis based assay; settings: 0.25 h

Structure (SMILES): NC(=O)NO [HYDROXYUREA]
Activity [1]: 471.5 nmol/mg/min
Activity [2]: 34.4 nmol/mg/min

Structure (SMILES): NC(=O)c1ccc[n+]([O-])c1
Activity [1]: 209.9 nmol/mg/min
Activity ([2]; BLD = below limit of detection): Bld
Activity [7]: 239.3 nmol/mg/min
Activity ([8]; BLD = below limit of detection): Bld

Structure (SMILES): O=CN(O)CCCP(=O)([O-])O.[Na+] [FOSMIDOMYCIN SODIUM]
Activity [1]: 7.2 nmol/mg/min
Activity [2]: 27.8 nmol/mg/min

Structure (SMILES): OC[C@H]1O[C@@H](n2cnc3c(NO)ncnc32)[C@H](O)[C@@H]1O
Activity [9]: 845.7 nmol/mg/min
Activity [10]: 271.6 nmol/mg/min
Activity [11]: 954.5 nmol/mg/min
Activity [12]: 291 nmol/mg/min

Structure (SMILES): N=C(NO)N/N=C/c1c(Cl)cccc1Cl [GUANOXABENZ]
Activity [13]: 951.2 nmol/mg/min
Activity [14]: 947.1 nmol/mg/min
Activity [15]: 988 nmol/mg/min
Activity [16]: 967.5 nmol/mg/min

Structure (SMILES): C=C1C(=O)O[C@@H]2CC[N+]3([O-])CC=C(COC(=O)[C@](C)(O)[C@H](C)[C@H]1C)[C@H]23 (stereo not given in full)
Activity [9]: 12.7 nmol/mg/min
Activity ([10]; BLD = below limit of detection): Bld
Activity [11]: 17.6 nmol/mg/min
Activity ([12]; BLD = below limit of detection): Bld

Structure (SMILES): C[N+](C)([O-])CCC=C1c2ccccc2CCc2ccccc21 [AMITRIPTYLINOXIDE]
Activity [1]: 9.5 nmol/mg/min
Activity ([2]; BLD = below limit of detection): Bld
Activity [7]: 3.1 nmol/mg/min
Activity ([8]; BLD = below limit of detection): Bld

Structure (SMILES): CN(CCCC(=O)c1cccnc1)N=O
Activity ([1]; BLD = below limit of detection): Bld
Activity ([2]; BLD = below limit of detection): Bld
Activity ([7]; BLD = below limit of detection): Bld
Activity ([8]; BLD = below limit of detection): Bld

Now from value to compound:

Activity [3]: 10.4 nmol/mg/min
Activity [4]: 24.3 nmol/mg/min
Activity [5]: 4.1 nmol/mg/min
Activity [6]: 17.9 nmol/mg/min
Structure (SMILES): NS(=O)(=O)NCCNc1nonc1C(=NO)Nc1ccc(F)c(Br)c1 [EPACADOSTAT]

Activity ([1]; BLD = below limit of detection): Bld
Activity ([2]; BLD = below limit of detection): Bld
Activity ([7]; BLD = below limit of detection): Bld
Activity ([8]; BLD = below limit of detection): Bld
Structure (SMILES): Cc1cn([C@H]2C[C@H](N=[N+]=[N-])[C@@H](CO)O2)c(=O)[nH]c1=O [ZIDOVUDINE]

Activity [1]: 499.8 nmol/mg/min
Activity [2]: 394.3 nmol/mg/min
Activity [7]: 549.6 nmol/mg/min
Activity [8]: 373.9 nmol/mg/min
Structure (SMILES): NC(=NO)c1ccccc1 [BENZAMIDOXIME]

Activity [1]: 354.7 nmol/mg/min
Activity [2]: 142.1 nmol/mg/min
Activity [7]: 354.8 nmol/mg/min
Activity [8]: 184.2 nmol/mg/min
Structure (SMILES): O=c1nc(NO)ccn1[C@@H]1O[C@H](CO)[C@@H](O)[C@H]1O [N-HYDROXYCYTIDINE]

Activity ([9]; BLD = below limit of detection): Bld
Activity ([10]; BLD = below limit of detection): Bld
Activity ([11]; BLD = below limit of detection): Bld
Activity ([12]; BLD = below limit of detection): Bld
Structure (SMILES): NS(=O)(=O)Cc1noc2ccccc12 [ZONISAMIDE]

Activity [9]: 6.1 nmol/mg/min
Activity [10]: 8.3 nmol/mg/min
Activity [11]: 2.3 nmol/mg/min
Activity [12]: 0.9 nmol/mg/min
Structure (SMILES): CC(c1cc2ccccc2s1)N(O)C(N)=O (stereo not given) [ZILEUTON]

Activity ([3]; BLD = below limit of detection): Bld
Activity ([4]; BLD = below limit of detection): Bld
Activity ([5]; BLD = below limit of detection): Bld
Activity ([6]; BLD = below limit of detection): Bld
Structure (SMILES): O=C1Cc2cc(CCN3CCN(c4nsc5ccccc45)CC3)c(Cl)cc2N1 [ZIPRASIDONE]

Activity ([13]; BLD = below limit of detection): Bld
Activity ([14]; BLD = below limit of detection): Bld
Activity ([15]; BLD = below limit of detection): Bld
Activity ([16]; BLD = below limit of detection): Bld
Structure (SMILES): Cc1oncc1C(=O)Nc1ccc(C(F)(F)F)cc1 [LEFLUNOMIDE]
